Like-named read-outs stand apart in the source and are kept apart here.

In assay [1] the test system is in vitro expanded peripheral human T cells. As to the kind of experiment: Determination of ROS generation (activation-induced oxidative signal, H2DCF-DA, FACS). The class given is cell-based. The conditions noted are these: for oxidative signal generation (T cell activation-induced mitochondrial ROS) with respiratory chain inhibitors: 15 min pre-treatment, plate-bound anti-CD3 (30 μg/ml) or PMA (10 ng/ml) 1 h (FIG. 9A). The procedure: (§1) T cell line Jurkat J16-145 cells, J16 sub-clone (2), were cultured in RPMI 1640 (+L-glutamine), 10% foetal calf serum (FCS). Gaussia luciferase NF-κB reporter J16-145 cells were cultured in IMDM, 10% FCS. Freshly isolated (“resting”) or phytohemagglutinin (PHA)-activated and 6-8 days in vitro expanded (“pre-activated”) peripheral human T cells were cultured at initial concentration of 2×10^6 cells/ml in RPMI 1640 (+L-glutamine), 10% FCS. For pre-activation-induced expansion, “resting” T cells were treated with 1 μg/ml PHA for 16 h, washed and subsequently cultured in the presence of 25 U/ml IL-2 for 6-8 days. These cells are referred to as “T cells” in the text, if not stated differently.
Cells were stained with H2DCF-DA (5 μM) for 30 min. Next, cells were divided and 1 h stimulated with either plate-bound anti-CD3 antibody (30 μg/ml) or PMA (10 ng/ml). Treatment was terminated by ice-cold PBS and ROS generation was determined by FACS analysis (Canto II, Becton Dickinson). ROS generation was quantified as the increase in mean fluorescence intensity (MFI), calculated according to the following formula: increase in MFI (%)=[(MFIstimulated−MFIunstimulated)/MFIunstimulated]×100 (3).

Assay [2] has as its system mitochondria-associated HK activity. As to the kind of experiment: Respiration-coupled hexokinase (HK)-like activity in T cell mitochondria ("high g" fraction). In kind it is biochemical, human.
The next assay has as its system mitochondrial AK. As to the kind of experiment: Adenylate kinase (AK) activity assay. The conditions noted are these: 5 μM. In kind it is biochemical. The procedure: AK activity was assayed as NADP reduction in ETC buffer containing 1 mM ADP, 1 mM glucose, 0.5 mM NADP, 1 U/mL HK and 0.05 U/ml glucose 6-phosphate dehydrogenase at pH 7.5 and 37° C.
For assay [3], the system named is in vitro expanded peripheral human T cells. The conditions noted are these: previous work (ref. 3); cited from earlier work.
Another assay deals with T cells. Briefly: Glucose uptake (D-[3-3H] glucose). The class given is cell-based, human. Conditions: after stimulation with anti-CD3 antibody or PMA. The procedure:
Upon treatment, cells (1-2×10^7 cells) were washed and suspended in Krebs-Ringer buffer. Subsequently, cells were incubated with 1 μCi/ml D-[3-^3H] glucose for 10 min at 37° C. Afterwards, cells were washed twice with ice-cold Krebs-Ringer buffer and intracellular D-[3-^3H] glucose was detected using a scintillation counter (LS 6500 Liquid Scintillation Counter Beckman Coulter; Brea, Calif., USA).

The next assay concerns the target T1, ADPGK (Homo sapiens, UniProt Q9BRR6).
T1 construct: endogenous in cells; host or cells: in vitro expanded human T cells or Jurkat T cells; "high g" mitochondrial or "ER-enriched" fraction
Briefly: ADP-dependent glucokinase (ADPGK) activity assay. In kind it is biochemical. Conditions: for ADPGK activity in mitochondria-enriched membrane fractions ("high g" fractions): human T cells or Jurkat T cells, 1 h stimulation. The procedure: (§2) Cells were disrupted using a 27×½″ needle in ice-cold ETC buffer and the homogenates were centrifuged at 600×g, 4° C. for 10 min. For preparation of the “high g” mitochondrial (pellet) as well cytosolic (supernatant) fraction the 600×g supernatant was centrifuged at 11.000×g, 4° C. for 20 min. For preparation of the “mitochondria-enriched” fractions, the 600×g supernatant was centrifuged 10 min, 4° C. at 3,500×g (pellet). Subsequently, for preparation of the “ER-enriched fraction” the 3,500×g supernatant was centrifuged at 11.000×g, 4° C. for 20 min. The mouse heart muscle mitochondria were prepared according to the procedure for “mitochondria-enriched” fraction as described (5).
ADPGK activity was assayed as NADP reduction in ETC buffer containing 1 mM ADP, 1 mM glucose, 0.5 mM NADP, 5 μM diadenosine pentaphosphate, and 0.05 U/ml glucose 6-phosphate dehydrogenase at pH 6.0 and 37° C. or 42° C. Assay was essentially based on the one previously described for the recombinant mouse ADPGK protein (9).

Assay [4] relates to in vitro expanded T cells. As to the kind of experiment: Oxygen electrode, mitochondrial respiratory rate. In kind it is cell-based. The conditions noted are these: intact human T cells, soluble anti-CD3 antibody or PMA. The method, then: Mitochondrial respiratory rate was measured according to a previously described protocol (7) using computer-supported high-resolution Oroboros 1 oxygraph system (Paar, Graz, Austria). In vitro expanded T cells (5-10×10^7 cells) were placed in each electrode chamber and activated with soluble anti-CD3 antibody (10 μg/m, cross-linked with GAM, 2 μg/ml) or PMA (10 ng/ml). The experimental set-up was as previously described (8). “Mitochondrial respiratory rate” was calculated by subtracting “Background oxygen consumption rate” (recorded with a reference electrode in a presence of 5 μM oligomycin) from “Total oxygen consumption rate” (as described in (8)).

Assay [5] has as its system in vitro expanded human T cells. Briefly: Ubiquinol/ubiquinone content determination (HPLC). In kind it is cell-based. The conditions noted are these: PMA (10 ng/ml) 1 h, extracts from snap-frozen activated T cells. The method, then:
At least 5×10^7 in vitro expanded human T cells were treated with plate-bound anti-CD3 antibody (30 μg/ml) or PMA (10 ng/ml) for 1 h. Cells were washed, pelleted, snap-frozen in liquid nitrogen and placed on dry ice. Ubiquinol/-on extraction was performed by addition of ice-cold 200 μl hexan: isopropanol (2:1) and subsequent centrifugation (15.000 g) for 5 min at 0° C. Next, 150 μl of the supernatant was immediately injected and separated by RP-HPLC. HPLC separation and identification conditions were based on previously published methods (10, 11). […] Identification was based on UV/VIS-DAD absorption spectra and facilitated by redox response detected with volt-amperometric detector. Quantitation was performed based on UV-VIS chromatograms at wavelengths: 275 nm (ubiquinone) and 289 nm (ubiquinol). Selected qualitative and quantitative results of UV-VIS/DAD analysis were confirmed by HPLC-MS/ESI (Agilent; Santa Clara, Calif., USA).

The test system of a further assay is GPD2. Briefly: GPD2 activity in mitochondrial fractions of T cells. In kind it is biochemical, human. The method, then:
as §2
Glycerol-3-phosphate-dehydrogenase (GPD2) activity was measured as cytochrome c reduction in ETC buffer containing 5 mM glycerol 3-phosphate, 2 mM NaCN, and 60 μM cytochrome c.

The subject of the next assay is enolase (ENO). Briefly: Enolase (ENO) reverse reaction activity. In kind it is biochemical, human. The procedure: Enolase (ENO) forward reaction was measured as NADH oxidation in ETC buffer containing 1 mM 2-phosphoglycerate, 1 mM ADP, 0.5 mM NADH, 2 U/ml LDH, 2 U/ml PK. The reverse reaction was assayed in ETC buffer containing 1 mM phosphoenolpyruvate, 1 mM ATP, 0.5 mM NADH, 2 U/ml LDH, 2 U/ml PK.

The test system of a further assay is Jurkat T cells. As to the kind of experiment: Determination of ROS generation (activation-induced oxidative signal, H2DCF-DA, FACS). The class given is cell-based, human. The conditions noted are these: 30 min pre-incubation with DOG/pyruvate, compared to equimolar glucose (Glc)/pyruvate. The procedure:
as §1
Cells were stained with H2DCF-DA (5 μM) for 30 min. Next, cells were divided and 1 h stimulated with either plate-bound anti-CD3 antibody (30 μg/ml) or PMA (10 ng/ml). Treatment was terminated by ice-cold PBS and ROS generation was determined by FACS analysis (Canto II, Becton Dickinson). ROS generation was quantified as the increase in mean fluorescence intensity (MFI), calculated according to the following formula: increase in MFI (%)=[(MFIstimulated−MFIunstimulated)/MFIunstimulated]×100 (3). […]

In assay [6] the test system is ETC complexes I, II and III. Briefly: Steady-state activity of ETC enzymatic complexes in digitonin-permeabilized T cells. The class given is biochemical, human. The conditions noted are these: T cells pre-treated (20 min) with BIM, TCR triggering. The procedure: In vitro expanded T cells (at least 0.5×10^8) were snap-frozen in liquid nitrogen and subsequently incubated on ice in ETC buffer (20 mM Tris-HCl pH 7.4, 250 mM sucrose, 50 mM KCl, 5 mM MgCl2) with 0.015% digitonin for 30 min according to Chretien et al. (4) with minor modifications. Afterwards, cells were washed twice with ice-cold ETC buffer and subjected to assays.
Steady-state activity of ETC enzymatic complexes was determined as described (5, 6) using a computer-tunable spectrophotometer (Spectramax Plus Microplate Reader, Molecular Devices; Sunny Vale, Calif., USA) operating in the dual wavelength mode; samples were analyzed in temperature-controlled 96-well plates in a final volume of 300 μL. The addition of standard respiratory chain inhibitors was used to ascertain the specificity of the enzymatic assays. All enzymatic activities were normalized to protein concentration. For stimulated T cells ETC enzyme activities were measured after snap-freezing and digitonin-permeabilization (as described previously). To study electron flow from complex I or complex II to complex III digitonin-permeabilized cells or mitochondrial fractions were incubated with NADH or succinate and the reduction of cytochrome c in the presence of NaCN was measured.

T1 sequence (Q9BRR6 23-497): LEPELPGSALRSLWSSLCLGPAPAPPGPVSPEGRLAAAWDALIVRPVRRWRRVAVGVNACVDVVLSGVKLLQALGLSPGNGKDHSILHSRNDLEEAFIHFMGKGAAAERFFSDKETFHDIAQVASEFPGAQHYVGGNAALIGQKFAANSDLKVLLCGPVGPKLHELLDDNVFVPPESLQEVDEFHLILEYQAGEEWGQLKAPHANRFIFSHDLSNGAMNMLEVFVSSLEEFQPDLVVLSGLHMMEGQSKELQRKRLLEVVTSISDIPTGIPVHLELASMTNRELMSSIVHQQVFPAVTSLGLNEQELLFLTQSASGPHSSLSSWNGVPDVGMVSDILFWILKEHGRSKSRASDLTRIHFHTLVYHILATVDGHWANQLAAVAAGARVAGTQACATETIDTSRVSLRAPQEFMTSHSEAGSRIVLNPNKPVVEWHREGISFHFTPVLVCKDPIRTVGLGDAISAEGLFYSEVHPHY

Consider `CO/C(=C/C(N)=O)[C@H](C)[C@H](/C=C/c1csc(-c2csc([C@@H](C)/C=C/C=C/C(C)C)n2)n1)OC` [myxothiazol], for which the “oxidative signal generation (T cell activation-induced mitochondrial ROS) with respiratory chain inhibitors” value in assay [1] was “not”.

Take diadenosine pentaphosphate [Ap5A]: the “inhibition of TCR-induced HK-like activity” value in assay [2] (5 μM, presence of ADP and succinate) is “up to 40%”. For the same molecule, the “activation-induced rise in HK-like activity” value in [2] (Ap5A 5 μM) is given as “unaffected”. Further, in the assay with mitochondrial AK, the “inhibition of mitochondrial AK” value is listed as 80-90%.

`[N-]=[N+]=[N-].[Na+]` [NaN3]: the “oxidative signal generation (T cell activation-induced mitochondrial ROS) with respiratory chain inhibitors” value in assay [1] is reported as “not blocked”.

Take `CN(C)C(=N)N=C(N)N` [metformin]: the “generation of the oxidative signal” value in [3] is reported as “blocked”. In [1], the “oxidative signal generation (T cell activation-induced mitochondrial ROS) with respiratory chain inhibitors” value is recorded as “inhibition”.

Regarding antimycin, the “oxidative signal generation (T cell activation-induced mitochondrial ROS) with respiratory chain inhibitors” value in assay [1] is given as “increased”.

Regarding `CCCCCCCCCCCCCC(=O)O[C@@H]1[C@@H](C)[C@@]2(O)[C@@H](C=C(CO)C[C@]3(O)C(=O)C(C)=C[C@@H]23)[C@@H]2C(C)(C)[C@]12OC(C)=O` [PMA, phorbol 12-myristate 13-acetate], the “cellular uptake of radioactively labeled glucose” value in the assay with T cells is reported as “rapidly rose”. Moreover, at ADPGK, the “ADPGK activity in mitochondria-enriched membrane fractions ("high g" fractions)” value is reported as “Comparable up-regulation”. For the same molecule, the mitochondrial oxygen consumption entry in assay [4] is reported as “significant inhibition”. The “rise in the content of ubiquinol over ubiquinone” value in [5] amounted to 57%. Besides, the GPD2 activity entry with GPD2 (mitochondria-enriched membrane fractions of pre-activated human T cells, PMA (10 ng/ml) 1 h) is “moderately up-regulated”.

As for `N#CC(C#N)=NNc1cccc(Cl)c1` [CCCP], the “sensitivity of the enhanced HK-like enzymatic activity” value in assay [2] (CCCP (0.125 μM), NaCN (10 mM)) was “insensitivity”.

For NaVO3, in the assay with enolase (ENO), the “TCR-induced increase of reverse ENO activity” value is “abolished” and the “reverse ENO activity” value is “reduced the activity but did not block it”.

As for `O=CC[C@@H](O)[C@H](O)[C@H](O)CO` [DOG, 2-deoxy-glucose], the “activation-induced ROS” value was “lower amounts” with Jurkat T cells and “lower amounts” in assay [1] (expanded human T cells, 30 min pre-incubation with DOG/pyruvate, compared to equimolar glucose (Glc)/pyruvate).

Take “anti-CD3 antibody: Monoclonal mouse antibody (OKT3) against human CD3, agonistic, used for TCR triggering”: the “cellular uptake of radioactively labeled glucose” value with T cells is listed as “rapidly rose”. Moreover, the “ADPGK activity in mitochondria-enriched membrane fractions ("high g" fractions)” value with ADPGK is recorded as “enhanced”. In addition, the mitochondrial oxygen consumption entry in [4] is reported as “significant inhibition”.

Turning to `[F-].[Na+]` [NaF], in the assay with enolase (ENO) (T cells), the “reverse ENO activity” value is “blocked”.

For the molecule `CC[C@H]1/C=C/C=C/C[C@@H](C)[C@H](O)[C@@](C)(O)C(=O)[C@@H](C)[C@H](O)[C@@H](C)C(=O)[C@@H](C)[C@H](O)[C@@H](C)/C=C/C(=O)O[C@@H]2[C@H](C)[C@H](CC1)O[C@]1(CC[C@H](C)[C@H](C[C@@H](C)O)O1)[C@H]2C` [oligomycin], the “oxidative signal generation (T cell activation-induced mitochondrial ROS) with respiratory chain inhibitors” value in assay [1] is “not blocked”.

`C=C(C)[C@H]1Cc2c(ccc3c2O[C@@H]2COc4cc(OC)c(OC)cc4[C@@H]2C3=O)O1` [rotenone]: the “oxidative signal generation (T cell activation-induced mitochondrial ROS) with respiratory chain inhibitors” value in assay [1] is reported as “inhibition”.

As for `O=C(CC(=O)C(F)(F)F)c1cccs1` [TTFA], in assay [1], the “oxidative signal generation (T cell activation-induced mitochondrial ROS) with respiratory chain inhibitors” value is “moderate inhibition”.

As for `CN(C)CCCn1cc(C2=C(c3c[nH]c4ccccc34)C(=O)NC2=O)c2ccccc21` [BIM, bis-indolyl-maleimidate I], the “T cell activation-induced enhancement of the ADPGK-like enzymatic activity” value at ADPGK ("high g" fractions, BIM pre-treatment (20 min)) is reported as “completely abolished”. Further, in assay [6], the “activation-induced changes of enzymatic activities of complexes I, II and III” value was “significantly blocked”. The “TCR-induced GPD2 activation” value in the assay on GPD2 (mitochondrial fractions of activated T cells, BIM pre-treatment) was “significantly blocked”. Further, the “TCR-induced mitochondrial ROS generation” value in assay [1] (20 min pre-incubation, 1 h plate-bound anti-CD3 antibody (30 μg/ml)) was “inhibitor”.

Source of the values: patent US20160113958A1, “MODULATORS OF ADP-DEPENDENT GLUCOKINASE (ADPGK) AND GLYCEROL-3-PHOSPHATE DEHYDROGENASE (GPD2) FOR THERAPY” (DEUTSCHES KREBSFORSCHUNGSZENTRUM STIFTUNG DES ÖFFENTLICHEN …, priority 2011, published 2016).
